Test results published in PubChem BioAssay AID1963960 (Molecular Pharmacology Branch, DTP, NCI, 2024).

Tested on: MDA-MB-468 spheroids with HUVEC/MSC, viability
Assay: Anticancer human tumor MDA-MB-468 cell line growth inhibition [PI3K];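 further: spheroids exposed to agents for seven days before readout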;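 on viability, T/C: 100% = DMSO vehicle control viability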
Conditions: for viability, T/C: stronger effect = lower value
Procedure, shortened: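 Combination activity was assessed by viability in multicellular tumor spheroids carrying HUVEC and MSC components. Agents were tested with PI3K inhibitors from a Cmax-based top dose (or 10 microM) downward in half-log increments.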

[1] = curve of first compound, second compound 0.00316 µM
[2] = curve of first compound, second compound 0.01 µM
[3] = curve of first compound, second compound 0.0316 µM
[4] = curve of first compound, second compound 0.1 µM
[5] = curve of first compound, second compound 0.316 µM
[6] = curve of first compound, second compound 1 µM
[7] = second compound 0.00316 µM, first compound 0.00316 µM
[8] = second compound 0.00316 µM, first compound 0.01 µM
[9] = second compound 0.00316 µM, first compound 0.0316 µM
[10] = second compound 0.00316 µM, first compound 0.1 µM
[11] = second compound 0.01 µM, first compound 0.00316 µM
[12] = second compound 0.01 µM, first compound 0.01 µM
[13] = second compound 0.01 µM, first compound 0.0316 µM
[14] = second compound 0.01 µM, first compound 0.1 µM
[15] = second compound 0.0316 µM, first compound 0.00316 µM
[16] = second compound 0.0316 µM, first compound 0.01 µM
[17] = second compound 0.0316 µM, first compound 0.0316 µM
[18] = second compound 0.0316 µM, first compound 0.1 µM
[19] = second compound 0.1 µM, first compound 0.00316 µM
[20] = second compound 0.1 µM, first compound 0.01 µM
[21] = second compound 0.1 µM, first compound 0.0316 µM
[22] = second compound 0.1 µM, first compound 0.1 µM
[23] = second compound 0.316 µM, first compound 0.00316 µM
[24] = second compound 0.316 µM, first compound 0.01 µM
[25] = second compound 0.316 µM, first compound 0.0316 µM
[26] = second compound 0.316 µM, first compound 0.1 µM
[27] = second compound 1 µM, first compound 0.00316 µM
[28] = second compound 1 µM, first compound 0.01 µM
[29] = second compound 1 µM, first compound 0.0316 µM
[30] = second compound 1 µM, first compound 0.1 µM
[31] = second compound 0.00316 µM, first compound 0.316 µM
[32] = second compound 0.00316 µM, first compound 1 µM
[33] = second compound 0.01 µM, first compound 0.316 µM
[34] = second compound 0.01 µM, first compound 1 µM
[35] = second compound 0.0316 µM, first compound 0.316 µM
[36] = second compound 0.0316 µM, first compound 1 µM
[37] = second compound 0.1 µM, first compound 0.316 µM
[38] = second compound 0.1 µM, first compound 1 µM
[39] = second compound 0.316 µM, first compound 0.316 µM
[40] = second compound 0.316 µM, first compound 1 µM
[41] = second compound 1 µM, first compound 0.316 µM
[42] = second compound 1 µM, first compound 1 µM

Structure (SMILES): CC(=O)c1c(C)c2cnc(Nc3ccc(N4CCNCC4)cn3)nc2n(C2CCCC2)c1=O + COc1c(OCCCN2CCOCC2)ccc2c3n(c(=NC(=O)c4cnc(N)nc4)nc12)CCN3
- IC50 [1]: > 0.1 µM
- IC50 [2]: > 0.1 µM
- IC50 [3]: > 0.1 µM
- IC50 [4]: > 0.1 µM
- IC50 [5]: < 0.000316 µM
- IC50 [6]: < 0.000316 µM
- viability, T/C (second compound 0.00316 µM, first compound 0.000316 µM): 105%
- viability, T/C (second compound 0.00316 µM, first compound 0.001 µM): 92.6%
- viability, T/C [7]: 92.5%
- viability, T/C [8]: 99.7%
- viability, T/C [9]: 90.1%
- viability, T/C [10]: 91.5%
- viability, T/C (second compound 0.01 µM, first compound 0.000316 µM): 85.7%
- viability, T/C (second compound 0.01 µM, first compound 0.001 µM): 84%
- viability, T/C [11]: 81.2%
- viability, T/C [12]: 86.2%
- viability, T/C [13]: 86.8%
- viability, T/C [14]: 110%
- viability, T/C (second compound 0.0316 µM, first compound 0.000316 µM): 64.1%
- viability, T/C (second compound 0.0316 µM, first compound 0.001 µM): 67.5%
- viability, T/C [15]: 72.2%
- viability, T/C [16]: 79.8%
- viability, T/C [17]: 83.2%
- viability, T/C [18]: 86.4%
- viability, T/C (second compound 0.1 µM, first compound 0.000316 µM): 59.5%
- viability, T/C (second compound 0.1 µM, first compound 0.001 µM): 62.8%
- viability, T/C [19]: 58.8%
- viability, T/C [20]: 61.5%
- viability, T/C [21]: 64.1%
- viability, T/C [22]: 53.2%
- viability, T/C (second compound 0.316 µM, first compound 0.000316 µM): 26.6%
- viability, T/C (second compound 0.316 µM, first compound 0.001 µM): 25.5%
- viability, T/C [23]: 27.1%
- viability, T/C [24]: 26.3%
- viability, T/C [25]: 27.1%
- viability, T/C [26]: 27.9%
- viability, T/C (second compound 1 µM, first compound 0.000316 µM): 3.5%
- viability, T/C (second compound 1 µM, first compound 0.001 µM): 3.63%
- viability, T/C [27]: 2.3%
- viability, T/C [28]: 3.4%
- viability, T/C [29]: 2.94%
- viability, T/C [30]: 2.61%

Structure (SMILES): CCN1CCN(Cc2ccc(Nc3ncc(F)c(-c4cc(F)c5nc(C)n(C(C)C)c5c4)n3)nc2)CC1 + CC(Nc1ccc2c(c1)OCCn1cc(N3C(=O)OCC3C(F)F)nc1-2)C(N)=O
- IC50 [1]: > 1 µM
- IC50 [2]: > 1 µM
- IC50 [3]: > 1 µM
- IC50 [4]: > 1 µM
- IC50 [5]: 0.855 µM
- IC50 [6]: > 1 µM
- viability, T/C [7]: 94%
- viability, T/C [8]: 98.2%
- viability, T/C [9]: 91.5%
- viability, T/C [10]: 103%
- viability, T/C [31]: 98.9%
- viability, T/C [32]: 70.1%
- viability, T/C [11]: 101%
- viability, T/C [12]: 117%
- viability, T/C [13]: 83.4%
- viability, T/C [14]: 100%
- viability, T/C [33]: 94.5%
- viability, T/C [34]: 70.5%
- viability, T/C [15]: 103%
- viability, T/C [16]: 108%
- viability, T/C [17]: 99.2%
- viability, T/C [18]: 85.5%
- viability, T/C [35]: 104%
- viability, T/C [36]: 59.2%
- viability, T/C [19]: 106%
- viability, T/C [20]: 95.5%
- viability, T/C [21]: 99.2%
- viability, T/C [22]: 105%
- viability, T/C [37]: 89.4%
- viability, T/C [38]: 54.3%
- viability, T/C [23]: 106%
- viability, T/C [24]: 92.7%
- viability, T/C [25]: 79.9%
- viability, T/C [26]: 93.3%
- viability, T/C [39]: 84.6%
- viability, T/C [40]: 44.2%
- viability, T/C [27]: 108%
- viability, T/C [28]: 81.7%
- viability, T/C [29]: 88.6%
- viability, T/C [30]: 88.3%
- viability, T/C [41]: 88.3%
- viability, T/C [42]: 51.8%

Structure (SMILES): CC1(C)CCC(Nc2ncc(C(F)(F)F)c(-c3c[nH]c4c(P(C)(C)=O)c(C#N)ccc34)n2)CN1 (stereo not given)
- viability, T/C (compound 0.0316 µM): 12% [middle of 4 runs]
- viability, T/C (compound 0.1 µM): 10.6% [middle of 4 runs]
- viability, T/C (compound 0.316 µM): 9.01% [middle of 4 runs]
- viability, T/C (compound 1 µM): 7.86% [middle of 4 runs]
- viability, T/C (compound 3.16 µM): 8.98% [middle of 4 runs]
- viability, T/C (compound 10 µM): 1.71% [middle of 4 runs]
- IC50 (curve of compound): < 0.0316 µM

Structure (SMILES): CCN1CCN(Cc2ccc(Nc3ncc(F)c(-c4cc(F)c5nc(C)n(C(C)C)c5c4)n3)nc2)CC1 + COc1c(OCCCN2CCOCC2)ccc2c3n(c(=NC(=O)c4cnc(N)nc4)nc12)CCN3
- IC50 [1]: > 1 µM
- IC50 [2]: > 1 µM
- IC50 [3]: > 1 µM
- IC50 [4]: > 1 µM
- IC50 [5]: < 0.00316 µM
- IC50 [6]: < 0.00316 µM
- viability, T/C [7]: 96.9%
- viability, T/C [8]: 90.8%
- viability, T/C [9]: 88.2%
- viability, T/C [10]: 96.8%
- viability, T/C [31]: 99.5%
- viability, T/C [32]: 69.9%
- viability, T/C [11]: 85.3%
- viability, T/C [12]: 88.8%
- viability, T/C [13]: 82%
- viability, T/C [14]: 88.8%
- viability, T/C [33]: 84.2%
- viability, T/C [34]: 54.4%
- viability, T/C [15]: 77%
- viability, T/C [16]: 72.2%
- viability, T/C [17]: 77.5%
- viability, T/C [18]: 73.6%
- viability, T/C [35]: 81.4%
- viability, T/C [36]: 66.1%
- viability, T/C [19]: 56.6%
- viability, T/C [20]: 72.4%
- viability, T/C [21]: 61.9%
- viability, T/C [22]: 59%
- viability, T/C [37]: 64%
- viability, T/C [38]: 40.3%
- viability, T/C [23]: 26.9%
- viability, T/C [24]: 25.1%
- viability, T/C [25]: 28.1%
- viability, T/C [26]: 29.9%
- viability, T/C [39]: 31.7%
- viability, T/C [40]: 24.4%
- viability, T/C [27]: 4.09%
- viability, T/C [28]: 4.14%
- viability, T/C [29]: 2.96%
- viability, T/C [30]: 4.33%
- viability, T/C [41]: 6.64%
- viability, T/C [42]: 9.9%

Structure (SMILES): CC(Cn1ccc(-c2ccc(C#N)c(Cl)c2)n1)NC(=O)c1cc(C(C)O)[nH]n1 (stereo not given) + CC(Nc1ncnc2nc[nH]c12)c1cc2cccc(Cl)c2c(=O)n1-c1ccccc1
- IC50 [3]: > 10 µM
- IC50 [4]: > 10 µM
- IC50 [5]: > 10 µM
- IC50 [6]: > 10 µM
- IC50 (curve of first compound, second compound 3.16 µM): > 10 µM
- IC50 (curve of first compound, second compound 10 µM): < 0.0316 µM
- viability, T/C [17]: 82%
- viability, T/C [18]: 92.4%
- viability, T/C [35]: 90.2%
- viability, T/C [36]: 90.3%
- viability, T/C (second compound 0.0316 µM, first compound 3.16 µM): 88.8%
- viability, T/C (second compound 0.0316 µM, first compound 10 µM): 79.1%
- viability, T/C [21]: 86.8%
- viability, T/C [22]: 80.7%
- viability, T/C [37]: 76.5%
- viability, T/C [38]: 88.4%
- viability, T/C (second compound 0.1 µM, first compound 3.16 µM): 89%
- viability, T/C (second compound 0.1 µM, first compound 10 µM): 71.7%
- viability, T/C [25]: 85.7%
- viability, T/C [26]: 93.6%
- viability, T/C [39]: 72.7%
- viability, T/C [40]: 76.1%
- viability, T/C (second compound 0.316 µM, first compound 3.16 µM): 70.7%
- viability, T/C (second compound 0.316 µM, first compound 10 µM): 66.3%
- viability, T/C [29]: 55.9%
- viability, T/C [30]: 69.1%
- viability, T/C [41]: 60.2%
- viability, T/C [42]: 73.9%
- viability, T/C (second compound 1 µM, first compound 3.16 µM): 66.6%
- viability, T/C (second compound 1 µM, first compound 10 µM): 57.6%
- viability, T/C (second compound 3.16 µM, first compound 0.0316 µM): 60.6%
- viability, T/C (second compound 3.16 µM, first compound 0.1 µM): 58.8%
- viability, T/C (second compound 3.16 µM, first compound 0.316 µM): 60.8%
- viability, T/C (second compound 3.16 µM, first compound 1 µM): 52.4%
- viability, T/C (second compound 3.16 µM, first compound 3.16 µM): 56.5%
- viability, T/C (second compound 3.16 µM, first compound 10 µM): 47.1%
- viability, T/C (second compound 10 µM, first compound 0.0316 µM): 45.8%
- viability, T/C (second compound 10 µM, first compound 0.1 µM): 40.5%
- viability, T/C (second compound 10 µM, first compound 0.316 µM): 40.7%
- viability, T/C (second compound 10 µM, first compound 1 µM): 43.1%
- viability, T/C (second compound 10 µM, first compound 3.16 µM): 44.5%
- viability, T/C (second compound 10 µM, first compound 10 µM): 38.6%
